The source made the active and inactive calls. The calls are words filed in the database; no cut-off is given here.
Key:
Mus musculus [1] = experiment: Compound was tested in mouse tail-flick analgesic antagonist assay vs morphine at 30 mg/kg; Inactive; format: functional, organism-based; design: dose 30 mg/kg
Mus musculus [2] = organism: Mus musculus; experiment: Compound was tested in mouse tail-flick antinociceptive assay; format: functional
Mus musculus [3] = organism: Mus musculus; experiment: Compound was tested in phenylquinone antinociceptive assay; format: functional
Mus musculus [4] = organism: Mus musculus; experiment: Compound was tested for its analgesic activity in mouse hotplate assay; format: functional
Mus musculus [5] = experiment: Compound was tested in mouse tail-flick antinociceptive assay at 10 mg/kg; Inactive; format: functional, organism-based; design: dose 10 mg/kg
Mus musculus [6] = experiment: Compound was tested for its analgesic activity in mouse hotplate assay at 20 mg/kg; Inactive; format: functional, organism-based; design: dose 20 mg/kg
Mus musculus [7] = organism: Mus musculus; experiment: Compound was evaluated for analgesic response in the mouse vas deferens assay (max response 77.1+/-8.0%); format: functional, organism-based
Mus musculus [8] = organism: Mus musculus; experiment: Compound was evaluated for analgesic response in the mouse vas deferens assay in the presence of naltrexone. (max response 43.4+/-8.1%); format: functional, organism-based
Mus musculus [9] = organism: Mus musculus; experiment: Compound was evaluated for antagonism in the mouse vas deferens assay in the presence of morphine at 10E-6 M; Inactive; format: functional, organism-based
Mus musculus [10] = experiment: Compound was tested in mouse tail-flick analgesic antagonist assay vs morphine at 30 mg/kg; format: functional
Mus musculus [11] = organism: Mus musculus; experiment: Compound was tested in mouse tail-flick antinociceptive assay.; format: functional
Mus musculus [12] = organism: Mus musculus; experiment: Compound was tested in phenylquinone antinociceptive assay.; format: functional
Mus musculus [13] = organism: Mus musculus; experiment: Compound was evaluated for antagonism in the mouse vas deferens assay at 10E-6 M; Inactive; format: functional, organism-based
Mus musculus [14] = organism: Mus musculus; experiment: Compound was evaluated for analgesic response in the mouse vas deferens assay at 10E-5 M; Inactive; format: functional, organism-based
Mus musculus [15] = experiment: Compound was tested for its analgesic activity in mouse hotplate assay at 50 mg/kg; Inactive; format: functional, organism-based; design: dose 50 mg/kg
Mus musculus [16] = experiment: Compound was tested in mouse tail-flick antinociceptive assay at 30 mg/kg; Inactive; format: functional, organism-based; design: dose 30 mg/kg
Mus musculus [17] = organism: Mus musculus; experiment: The compound was evaluated for analgesic response in the mouse vas deferens assay (max response 80.6+/-4.0%); format: functional, organism-based
Mus musculus [18] = organism: Mus musculus; experiment: Compound was evaluated for analgesic response in the mouse vas deferens assay in the presence of naltrexone. (max response […]); format: functional, organism-based
Mus musculus [19] = organism: Mus musculus; experiment: Compound was tested in mouse tail-flick analgesic antagonist assay vs morphine; format: functional

Compound | AD50 (Mus musculus [1]) | ED50 (Mus musculus [2]) | ED50 (Mus musculus [3]) | ED50 (Mus musculus [4]) | ED50 (Mus musculus [6]) | other results
CCC[C@H]1C2Cc3ccc(O)c4c3[C@]1(CCN2CCc1ccccc1)CO4 | inactive | 1.4 mg/kg | 0.2 mg/kg | 1.7 mg/kg | – | –
COc1ccc2c3c1OC[C@@]31CCN(C)C(C2)[C@@H]1CCCO | inactive | – | – | – | inactive | ED50 (Mus musculus [5]): inactive
CCC[C@H]1C2Cc3ccc(O)c4c3[C@]1(CCN2C)CO4 | inactive | 0.4 mg/kg | 0.1 mg/kg | 1.8 mg/kg | – | EC50 (Mus musculus [7]): 350 nM; EC50 (Mus musculus [8]): 3320 nM; ED50 (Mus musculus [9]): inactive
C=CCN1CC[C@]23c4c5ccc(O)c4O[C@H]2C(=O)CC[C@@]3(O)[C@H]1C5.Cl [NALOXONE HYDROCHLORIDE] | – | – | – | – | – | AD50 (Mus musculus [10]): 0.035 mg/kg
COc1ccc2c3c1O[C@H]1[C@@H](O)C=C[C@H]4[C@@H](C2)N(C)CC[C@@]341.COc1ccc2c3c1O[C@H]1[C@@H](O)C=C[C@H]4[C@@H](C2)N(C)CC[C@@]341.O.O=P(O)(O)O.O=P(O)(O)O [CODEINE PHOSPHATE] | inactive | – | – | 9.3 mg/kg | – | ED50 (Mus musculus [11]): 14.5 mg/kg; ED50 (Mus musculus [12]): 1.1 mg/kg
CCC[C@H]1C2Cc3ccc(OC)c4c3[C@]1(CCN2C)CO4 | inactive | 8.1 mg/kg | 0.8 mg/kg | – | inactive | EC50 (Mus musculus [13]): Not Active; EC50 (Mus musculus [14]): Not Active
CN1CC[C@]23c4c5ccc(O)c4O[C@H]2[C@@H](O)C=C[C@H]3[C@H]1C5.CN1CC[C@]23c4c5ccc(O)c4O[C@H]2[C@@H](O)C=C[C@H]3[C@H]1C5.O=S(=O)(O)O | – | – | – | 1.2 mg/kg | – | –
CCOC(=O)CC[C@H]1C2Cc3ccc(OC)c4c3[C@]1(CCN2C)CO4 | inactive | – | – | – | – | ED50 (Mus musculus [15]): inactive; ED50 (Mus musculus [16]): inactive
CCC[C@H]1C2Cc3ccc(OC(C)=O)c4c3[C@]1(CCN2C)CO4 | inactive | – | – | – | – | ED50 (Mus musculus [11]): 0.7 mg/kg; EC50 (Mus musculus [17]): 85.2 nM; ED50 (Mus musculus [9]): inactive; EC50 (Mus musculus [18]): 422 nM; ED50 (Mus musculus [12]): 0.2 mg/kg
CCC[C@H]1C2Cc3cccc4c3[C@]1(CCN2C)CO4 | inactive | 20.7 mg/kg | 2.9 mg/kg | – | inactive | –
C=CCN1CC[C@]23COc4c(O)ccc(c42)CC1[C@@H]3CCC | – | – | – | – | inactive | AD50 (Mus musculus [19]): 0.4 mg/kg; ED50 (Mus musculus [16]): inactive
